In paper PMC5218480 (PLoS ONE, 2017):

Test system: MV-4-11 cells
Experiment: Gene expression microarray analysis (Affymetrix PrimeView) and GSEA
Type: cell-based, human
Parameters: RFU PODN (11730768_x_at) / Fold change /veh PODN (11730768_x_at) / RFU LINC00158 (11744669_a_at) / Fold change /veh LINC00158 (11744669_a_at) / RFU DUSP10 (11751237_a_at) / Fold change /veh DUSP10 (11751237_a_at) / RFU ID3 (11757404_x_at) / Fold change /veh ID3 (11757404_x_at) / RFU PLEKHG5 (11737974_s_at) / Fold change /veh PLEKHG5 (11737974_s_at) / RFU LRRC4B (11730491_at) / Fold change /veh LRRC4B (11730491_at) / RFU GIMAP4 (11747438_a_at) / Fold change /veh GIMAP4 (11747438_a_at) / RFU KRT8 (11758183_x_at) / Fold change /veh KRT8 (11758183_x_at) / RFU CNN1 (11734310_a_at) / Fold change /veh CNN1 (11734310_a_at) / RFU VPS37D (11726825_at) / Fold change /veh VPS37D (11726825_at) / RFU C10orf10 (11716522_x_at) / Fold change /veh C10orf10 (11716522_x_at) / RFU KIR2DL2 /// KIR2DL4 /// KIR2DL5A /// KIR2DL5B /// KIR2DS1 /// KIR2DS2 /// KIR2DS3 /// KIR2DS4 /// KIR3DL3 /// KIR3DL3 /// KIR3DS1 (11738374_at) / Fold change /veh KIR2DL2 /// KIR2DL4 /// KIR2DL5A /// KIR2DL5B /// KIR2DS1 /// KIR2DS2 /// KIR2DS3 /// KIR2DS4 /// KIR3DL3 /// KIR3DL3 /// KIR3DS1 (11738374_at) / RFU C1QL1 (11718748_at) / Fold change /veh C1QL1 (11718748_at) / RFU TMPRSS4 (11747572_a_at) / Fold change /veh TMPRSS4 (11747572_a_at) / RFU HAMP (11756126_x_at) / Fold change /veh HAMP (11756126_x_at) / RFU RNFT2 (11725882_a_at) / Fold change /veh RNFT2 (11725882_a_at) / RFU NR4A2 (11747474_a_at) / Fold change /veh NR4A2 (11747474_a_at) / RFU ABCC12 (11746883_a_at) / Fold change /veh ABCC12 (11746883_a_at) / RFU TMEM136 (11760407_x_at) / Fold change /veh TMEM136 (11760407_x_at) / RFU CLDN22 /// WWC2 (11732394_at) / Fold change /veh CLDN22 /// WWC2 (11732394_at) / RFU HLA-DPB1 (11760878_x_at) / Fold change /veh HLA-DPB1 (11760878_x_at) / RFU SPINT1 (11716480_a_at) / Fold change /veh SPINT1 (11716480_a_at) / RFU GAP43 (11754022_s_at) / Fold change /veh GAP43 (11754022_s_at) / RFU A4GNT (11735810_at) / Fold change /veh A4GNT (11735810_at) / RFU PRB3 (11715151_x_at) / Fold change /veh PRB3 (11715151_x_at) / RFU TUBB4B (11761932_at) / Fold change /veh TUBB4B (11761932_at) / RFU CAPN14 (11732068_a_at) / Fold change /veh CAPN14 (11732068_a_at) / RFU TMCC2 (11721928_a_at) / Fold change /veh TMCC2 (11721928_a_at) / RFU IRGQ (11745062_a_at) / Fold change /veh IRGQ (11745062_a_at) / RFU FAM174B (11720279_a_at) / Fold change /veh FAM174B (11720279_a_at) / RFU TMPRSS4 (11748680_a_at) / Fold change /veh TMPRSS4 (11748680_a_at) / RFU FAM212B (11763350_a_at) / Fold change /veh FAM212B (11763350_a_at) / RFU PLEKHG5 (11743358_a_at) / Fold change /veh PLEKHG5 (11743358_a_at) / RFU ZSCAN30 (11745921_a_at) / Fold change /veh ZSCAN30 (11745921_a_at) / RFU CMKLR1 (11741424_a_at) / Fold change /veh CMKLR1 (11741424_a_at) / RFU LOC101060620 /// MAPK8IP1 (11723275_at) / Fold change /veh LOC101060620 /// MAPK8IP1 (11723275_at) / RFU SPTSSB (11747773_x_at) / Fold change /veh SPTSSB (11747773_x_at) / RFU PRSS12 (11739890_at) / Fold change /veh PRSS12 (11739890_at) / RFU BIN1 (11741810_x_at) / Fold change /veh BIN1 (11741810_x_at) / RFU WNT11 (11732464_a_at) / Fold change /veh WNT11 (11732464_a_at) / RFU C10orf10 (11716521_a_at) / Fold change /veh C10orf10 (11716521_a_at) / RFU C5orf56 (11738089_at) / Fold change /veh C5orf56 (11738089_at) / RFU CYB561 (11721691_x_at) / Fold change /veh CYB561 (11721691_x_at) / RFU ANKRD19P (11752326_a_at) / Fold change /veh ANKRD19P (11752326_a_at) / RFU OR2T12 /// OR2T33 /// OR2T8 (11738714_s_at) / Fold change /veh OR2T12 /// OR2T33 /// OR2T8 (11738714_s_at) / RFU VCAN (11748164_a_at) / Fold change /veh VCAN (11748164_a_at) / RFU JSRP1 (11732532_at) / Fold change /veh JSRP1 (11732532_at) / RFU KRTAP10-11 (11738290_x_at) / Fold change /veh KRTAP10-11 (11738290_x_at) / RFU MYO3A (11730013_a_at) / Fold change /veh MYO3A (11730013_a_at) / RFU EBF3 (11725865_a_at) / Fold change /veh EBF3 (11725865_a_at) / RFU CAMK2N1 (11719241_x_at) / Fold change /veh CAMK2N1 (11719241_x_at) / RFU C5orf56 (11738088_a_at) / Fold change /veh C5orf56 (11738088_a_at) / RFU OLFML3 (11715873_a_at) / Fold change /veh OLFML3 (11715873_a_at) / RFU LOC100653217 /// NTM (11731650_a_at) / Fold change /veh LOC100653217 /// NTM (11731650_a_at) / RFU MAPK11 (11762145_a_at) / Fold change /veh MAPK11 (11762145_a_at) / RFU FIZ1 (11724087_x_at) / Fold change /veh FIZ1 (11724087_x_at) / RFU OASL (11726364_x_at) / Fold change /veh OASL (11726364_x_at) / RFU SOX15 (11748057_x_at) / Fold change /veh SOX15 (11748057_x_at) / RFU CD79A (11719716_a_at) / Fold change /veh CD79A (11719716_a_at) / RFU HIST1H1D (11736915_at) / Fold change /veh HIST1H1D (11736915_at) / RFU CASKIN2 (11723855_a_at) / Fold change /veh CASKIN2 (11723855_a_at) / RFU LOC730098 (11760151_x_at) / Fold change /veh LOC730098 (11760151_x_at) / RFU OR4N2 (11742367_at) / Fold change /veh OR4N2 (11742367_at) / RFU PRRT2 (11749266_a_at) / Fold change /veh PRRT2 (11749266_a_at) / RFU SNX32 (11753110_a_at) / Fold change /veh SNX32 (11753110_a_at) / RFU CDHR5 (11726645_a_at) / Fold change /veh CDHR5 (11726645_a_at) / RFU RCAN1 (11760418_a_at) / Fold change /veh RCAN1 (11760418_a_at) / RFU FAM167A (11723789_a_at) / Fold change /veh FAM167A (11723789_a_at) / RFU FAM26E (11764081_at) / Fold change /veh FAM26E (11764081_at) / RFU ISYNA1 (11749810_s_at) / Fold change /veh ISYNA1 (11749810_s_at) / RFU ACY1 (11761880_at) / Fold change /veh ACY1 (11761880_at) / RFU 11764098_at / Fold change /veh 11764098_at / RFU SAMD14 (11745864_x_at) / Fold change /veh SAMD14 (11745864_x_at) / RFU NPB (11741838_a_at) / Fold change /veh NPB (11741838_a_at) / RFU TMPRSS6 (11731388_a_at) / Fold change /veh TMPRSS6 (11731388_a_at) / RFU KRTAP10-2 (11738614_at) / Fold change /veh KRTAP10-2 (11738614_at) / RFU ARHGAP8 /// PRR5-ARHGAP8 (11727945_x_at) / Fold change /veh ARHGAP8 /// PRR5-ARHGAP8 (11727945_x_at) / RFU KRTAP5-7 /// NADSYN1 (11734609_at) / Fold change /veh KRTAP5-7 /// NADSYN1 (11734609_at) / RFU RASL12 (11751679_a_at) / Fold change /veh RASL12 (11751679_a_at) / RFU CDKN2B (11736163_a_at) / Fold change /veh CDKN2B (11736163_a_at) / RFU PRF1 (11729649_at) / Fold change /veh PRF1 (11729649_at) / RFU, ZNF638 /// ZNF638-IT1 / Fold change vs veh, ZNF638 /// ZNF638-IT1 / RFU, PANK3 / Fold change vs veh, PANK3 / RFU, SH3YL1 / Fold change vs veh, SH3YL1 / RFU, ZEB2 / Fold change vs veh, ZEB2 / RFU, NRIP1 / Fold change vs veh, NRIP1 / RFU, PTTG1IP / Fold change vs veh, PTTG1IP / RFU, CAPN2 / Fold change vs veh, CAPN2 / RFU, MED14 / Fold change vs veh, MED14 / RFU, SNORA58 / Fold change vs veh, SNORA58 / RFU, C1orf63 / Fold change vs veh, C1orf63 / RFU, LRRFIP1 / Fold change vs veh, LRRFIP1 / RFU, NDUFAF7 / Fold change vs veh, NDUFAF7 / RFU, SLC12A2 / Fold change vs veh, SLC12A2 / RFU, IBTK / Fold change vs veh, IBTK / RFU, ESF1 / Fold change vs veh, ESF1 / Fold change vs veh, TMEM50B / RFU, TAOK1 / Fold change vs veh, TAOK1 / RFU, ACBD3 / Fold change vs veh, ACBD3 / RFU, TMA16 / Fold change vs veh, TMA16 / RFU, RWDD3 / Fold change vs veh, RWDD3 / RFU, BCAT1 / Fold change vs veh, BCAT1 / RFU, EDEM3 / Fold change vs veh, EDEM3 / RFU, TMEM33 / Fold change vs veh, TMEM33 / RFU, WDR75 / Fold change vs veh, WDR75 / RFU, AHCTF1 / Fold change vs veh, AHCTF1 / RFU, TFRC / Fold change vs veh, TFRC / RFU, ZDHHC17 / Fold change vs veh, ZDHHC17 / RFU, NOM1 / Fold change vs veh, NOM1 / RFU, ARL8B / Fold change vs veh, ARL8B / RFU, ZBTB11 / Fold change vs veh, ZBTB11 / RFU, TAMM41 / Fold change vs veh, TAMM41 / RFU, KIAA1704 /// LOC100996395 / Fold change vs veh, KIAA1704 /// LOC100996395 / RFU, ING1 / Fold change vs veh, ING1 / RFU, TRMT61B / Fold change vs veh, TRMT61B / RFU, FUBP3 / Fold change vs veh, FUBP3 / RFU, TP53 / Fold change vs veh, TP53 / RFU, TNKS2 / Fold change vs veh, TNKS2 / RFU, ZFP14 / Fold change vs veh, ZFP14 / RFU, ACTR2 / Fold change vs veh, ACTR2 / RFU, PPP3R1 / Fold change vs veh, PPP3R1 / RFU, PIK3R1 / Fold change vs veh, PIK3R1 / RFU, HNRNPA1 / Fold change vs veh, HNRNPA1 / RFU, RNF170 / Fold change vs veh, RNF170 / RFU, ZNF28 / Fold change vs veh, ZNF28 / RFU, RNGTT / Fold change vs veh, RNGTT / RFU, OGT / Fold change vs veh, OGT / RFU, BRD1 / Fold change vs veh, BRD1 / RFU, MARS / Fold change vs veh, MARS / RFU, ZNF655 / Fold change vs veh, ZNF655 / RFU, FAHD1 / Fold change vs veh, FAHD1 / RFU, BDP1 / Fold change vs veh, BDP1 / RFU, LRRCC1 / Fold change vs veh, LRRCC1 / RFU, ARID1A / Fold change vs veh, ARID1A / RFU, ZNF146 / Fold change vs veh, ZNF146 / RFU, ZNF330 / Fold change vs veh, ZNF330 / RFU, GPN3 / Fold change vs veh, GPN3 / RFU, C9orf123 / Fold change vs veh, C9orf123 / RFU, N4BP2L2 / Fold change vs veh, N4BP2L2 / RFU, ARFIP1 / Fold change vs veh, ARFIP1 / RFU, FAM179B / Fold change vs veh, FAM179B / RFU, BCL10 / Fold change vs veh, BCL10 / RFU, UHRF1BP1L / Fold change vs veh, UHRF1BP1L / RFU, BET1 / Fold change vs veh, BET1 / RFU, CNOT2 / Fold change vs veh, CNOT2 / RFU, ZNF268 / Fold change vs veh, ZNF268 / Fold change vs veh, ZNF507 / RFU, DGCR2 / Fold change vs veh, DGCR2 / RFU, WDSUB1 / Fold change vs veh, WDSUB1 / Fold change vs veh, HSP90B1 /// MIR3652 / RFU, ADSS / Fold change vs veh, ADSS / RFU, GK / Fold change vs veh, GK / RFU, ZNF148 / Fold change vs veh, ZNF148 / RFU, TAF9 / Fold change vs veh, TAF9 / RFU, SLC1A5 / Fold change vs veh, SLC1A5 / RFU, SLMO2 / Fold change vs veh, SLMO2 / RFU, ABCC4 / Fold change vs veh, ABCC4 / RFU, LOC101060439 /// RAP1B / Fold change vs veh, LOC101060439 /// RAP1B / RFU, RFX7 / Fold change vs veh, RFX7 / RFU, GTPBP10 / Fold change vs veh, GTPBP10 / RFU, CNEP1R1 / Fold change vs veh, CNEP1R1 / RFU, BIVM-ERCC5 /// ERCC5 / Fold change vs veh, BIVM-ERCC5 /// ERCC5 / RFU, ILF3 / Fold change vs veh, ILF3 / RFU 11762660_at / Fold change /veh 11762660_at / RFU VCAN (11757783_s_at) / Fold change /veh VCAN (11757783_s_at) / RFU DDX43 (11728927_at) / Fold change /veh DDX43 (11728927_at) / RFU KRT8 (11758188_x_at) / Fold change /veh KRT8 (11758188_x_at) / RFU NKD1 (11759106_at) / Fold change /veh NKD1 (11759106_at) / RFU SRD5A1 (11742802_a_at) / Fold change /veh SRD5A1 (11742802_a_at) / RFU TPSAB1 /// TPSB2 (11721975_s_at) / Fold change /veh TPSAB1 /// TPSB2 (11721975_s_at) / RFU GSTM3 (11746129_a_at) / Fold change /veh GSTM3 (11746129_a_at) / RFU IL23R (11737362_x_at) / Fold change /veh IL23R (11737362_x_at) / RFU TMEM51 (11727254_a_at) / Fold change /veh TMEM51 (11727254_a_at) / RFU PIWIL2 (11732686_x_at) / Fold change /veh PIWIL2 (11732686_x_at) / RFU ORM1 (11744905_x_at) / Fold change /veh ORM1 (11744905_x_at) / RFU CCDC152 (11743942_at) / Fold change /veh CCDC152 (11743942_at) / RFU ECM1 (11717891_a_at) / Fold change /veh ECM1 (11717891_a_at) / RFU IL23R (11748794_a_at) / Fold change /veh IL23R (11748794_a_at) / RFU TNFAIP8L3 (11732012_x_at) / Fold change /veh TNFAIP8L3 (11732012_x_at) / RFU MBOAT4 (11741988_at) / Fold change /veh MBOAT4 (11741988_at) / RFU 11764193_at / Fold change /veh 11764193_at / RFU TMEM53 (11763286_at) / Fold change /veh TMEM53 (11763286_at) / RFU MAGEB2 (11727129_at) / Fold change /veh MAGEB2 (11727129_at) / RFU TMEM200A (11744735_a_at) / Fold change /veh TMEM200A (11744735_a_at) / RFU CCDC152 (11751479_a_at) / Fold change /veh CCDC152 (11751479_a_at) / RFU FAM211A (11726209_a_at) / Fold change /veh FAM211A (11726209_a_at) / RFU RGS16 (11746705_a_at) / Fold change /veh RGS16 (11746705_a_at) / RFU VCAN (11755009_s_at) / Fold change /veh VCAN (11755009_s_at) / RFU RHOB (11743442_s_at) / Fold change /veh RHOB (11743442_s_at) / RFU RGS16 (11720943_a_at) / Fold change /veh RGS16 (11720943_a_at) / RFU RGS16 (11720944_at) / Fold change /veh RGS16 (11720944_at) / RFU, VPS4B / Fold change vs veh, VPS4B / RFU, CREB1 / Fold change vs veh, CREB1 / RFU, DNAJC13 / Fold change vs veh, DNAJC13 / RFU, GNAQ / Fold change vs veh, GNAQ / RFU, CDK5R1 / Fold change vs veh, CDK5R1 / RFU, ZRANB3 / Fold change vs veh, ZRANB3 / RFU, CUL4A / Fold change vs veh, CUL4A / RFU, CCNY / Fold change vs veh, CCNY / RFU, UFL1 / Fold change vs veh, UFL1 / RFU, COG3 / Fold change vs veh, COG3 / RFU, DIAPH2 / Fold change vs veh, DIAPH2 / RFU, SKA2 / Fold change vs veh, SKA2 / RFU, AFF3 / Fold change vs veh, AFF3 / RFU, LMF1 / Fold change vs veh, LMF1 / RFU, IPO11 / Fold change vs veh, IPO11 / RFU, DFFB / Fold change vs veh, DFFB / RFU, FOXP1 / Fold change vs veh, FOXP1 / RFU, CARD8 / Fold change vs veh, CARD8 / RFU, STRN3 / Fold change vs veh, STRN3 / RFU, ADK / Fold change vs veh, ADK / RFU, RASSF2 / Fold change vs veh, RASSF2 / RFU, WIPF1 / Fold change vs veh, WIPF1 / RFU, LARP1B / Fold change vs veh, LARP1B / RFU, RASA1 / Fold change vs veh, RASA1 / RFU, RB1 / Fold change vs veh, RB1 / RFU, PPFIA1 / Fold change vs veh, PPFIA1 / RFU, MAT2A / Fold change vs veh, MAT2A / RFU, CCT5 / Fold change vs veh, CCT5 / RFU, WDR92 / Fold change vs veh, WDR92 / RFU, CUX1 / Fold change vs veh, CUX1 / RFU, TTC7A / Fold change vs veh, TTC7A / RFU, TMEM135 / Fold change vs veh, TMEM135 / RFU, DEPTOR / Fold change vs veh, DEPTOR / RFU, CPM / Fold change vs veh, CPM / RFU, DNAJB6 / Fold change vs veh, DNAJB6 / RFU, CACNA2D3 / Fold change vs veh, CACNA2D3 / RFU, DTX4 / Fold change vs veh, DTX4 / RFU, TFCP2 / Fold change vs veh, TFCP2 / RFU, GMCL1 /// GMCL1P1 / Fold change vs veh, GMCL1 /// GMCL1P1 / RFU, AEBP2 / Fold change vs veh, AEBP2 / RFU, SNHG1 /// SNORD22 /// SNORD25 /// SNORD26 /// SNORD27 /// SNORD28 /// SNORD29 /// SNORD31 / Fold change vs veh, SNHG1 /// SNORD22 /// SNORD25 /// SNORD26 /// SNORD27 /// SNORD28 /// SNORD29 /// SNORD31 / Fold change (Aza/veh), C12orf56 (ProbeSet 11735607_a_at) / Fold change (ACY-1035/veh), C12orf56 (ProbeSet 11735607_a_at) / Fold change (Aza/veh), FGFR1OP (ProbeSet 11751329_s_at) / Fold change (ACY-1035/veh), FGFR1OP (ProbeSet 11751329_s_at) / Fold change (Aza/veh), VPS36 (ProbeSet 11739960_a_at) / Fold change (ACY-1035/veh), VPS36 (ProbeSet 11739960_a_at) / RFU SYPL1 (11715823_x_at) / Fold change /veh SYPL1 (11715823_x_at) / RFU IGFBP7 (11715501_s_at) / Fold change /veh IGFBP7 (11715501_s_at) / RFU REEP3 (11722064_at) / Fold change /veh REEP3 (11722064_at) / RFU IGLL1 (11728026_x_at) / Fold change /veh IGLL1 (11728026_x_at): dose or concentration left out as unconfirmed
Conditions: MV-4-11 cells, 48 hours

## Nc1ncn([C@@H]2O[C@H](CO)[C@@H](O)[C@H]2O)c(=O)n1 [azacitidine]
  RFU VCAN (11748164_a_at): 5.82 RFU
